US9656968B2, “Pyrimidines as sodium channel blockers” (PURDUE PHARMA L.P, priority 2011, dated 2017)
Like-named read-outs stand apart in the source and are kept apart here.

How the values were obtained:
[1] = tested on: SNL-induced mechanical hyperalgesia; assay: SNL-induced mechanical hyperalgesia model (paw pressure test, PWT); assay type: in vivo, rat; conditions: dosed orally at 100 mg/kg, vehicle 0.5% methyl cellulose, one hour before testing
Method: In the Chung model, the spinal nerve ligation (SNL) model of neuropathic pain is used to produce mechanical hyperalgesia, thermal hyperalgesia, and tactile allodynia in rats. Surgery is performed under isoflurane/O2 inhalation anesthesia. Following induction of anesthesia a 3 cm incision is made and the left paraspinal muscles are separated from the spinous process at the L4-S2 levels. The L6 transverse process is carefully removed with a pair of small rongeurs to identify visually the L4-L6 spinal nerves. The left L5 (or L5 and L6) spinal nerve(s) is (are) isolated and tightly ligated with silk thread. […] The animals can also be assessed for response to noxious thermal stimuli or for tactile allodynia, as described below. […] Sensitivity to noxious mechanical stimuli was measured in animals using the paw pressure test to assess mechanical hyperalgesia. In rats, hind paw withdrawal thresholds (“PWT”), measured in grams, in response to a noxious mechanical stimulus were determined using an analgesymeter (Model 7200, commercially available from Ugo Basile of Italy), as described in Stein (Biochemistry & Behavior 31: 451-455 (1988)). […] PWT was determined once for each rat at each time point. PWT can be measured only in the injured paw, or in both the injured and non-injured paw. […]

human Nav1.7 = human Nav1.7 (Homo sapiens (Human), UniProt Q15858); assay: FLIPR sodium dye assay for sodium channel blocking activity (recombinant Nav1.7/HEK293 cells); assay type: cell-based
human Nav1.7, sequence (Q15858 other isoform, or with tags, fused parts or gaps): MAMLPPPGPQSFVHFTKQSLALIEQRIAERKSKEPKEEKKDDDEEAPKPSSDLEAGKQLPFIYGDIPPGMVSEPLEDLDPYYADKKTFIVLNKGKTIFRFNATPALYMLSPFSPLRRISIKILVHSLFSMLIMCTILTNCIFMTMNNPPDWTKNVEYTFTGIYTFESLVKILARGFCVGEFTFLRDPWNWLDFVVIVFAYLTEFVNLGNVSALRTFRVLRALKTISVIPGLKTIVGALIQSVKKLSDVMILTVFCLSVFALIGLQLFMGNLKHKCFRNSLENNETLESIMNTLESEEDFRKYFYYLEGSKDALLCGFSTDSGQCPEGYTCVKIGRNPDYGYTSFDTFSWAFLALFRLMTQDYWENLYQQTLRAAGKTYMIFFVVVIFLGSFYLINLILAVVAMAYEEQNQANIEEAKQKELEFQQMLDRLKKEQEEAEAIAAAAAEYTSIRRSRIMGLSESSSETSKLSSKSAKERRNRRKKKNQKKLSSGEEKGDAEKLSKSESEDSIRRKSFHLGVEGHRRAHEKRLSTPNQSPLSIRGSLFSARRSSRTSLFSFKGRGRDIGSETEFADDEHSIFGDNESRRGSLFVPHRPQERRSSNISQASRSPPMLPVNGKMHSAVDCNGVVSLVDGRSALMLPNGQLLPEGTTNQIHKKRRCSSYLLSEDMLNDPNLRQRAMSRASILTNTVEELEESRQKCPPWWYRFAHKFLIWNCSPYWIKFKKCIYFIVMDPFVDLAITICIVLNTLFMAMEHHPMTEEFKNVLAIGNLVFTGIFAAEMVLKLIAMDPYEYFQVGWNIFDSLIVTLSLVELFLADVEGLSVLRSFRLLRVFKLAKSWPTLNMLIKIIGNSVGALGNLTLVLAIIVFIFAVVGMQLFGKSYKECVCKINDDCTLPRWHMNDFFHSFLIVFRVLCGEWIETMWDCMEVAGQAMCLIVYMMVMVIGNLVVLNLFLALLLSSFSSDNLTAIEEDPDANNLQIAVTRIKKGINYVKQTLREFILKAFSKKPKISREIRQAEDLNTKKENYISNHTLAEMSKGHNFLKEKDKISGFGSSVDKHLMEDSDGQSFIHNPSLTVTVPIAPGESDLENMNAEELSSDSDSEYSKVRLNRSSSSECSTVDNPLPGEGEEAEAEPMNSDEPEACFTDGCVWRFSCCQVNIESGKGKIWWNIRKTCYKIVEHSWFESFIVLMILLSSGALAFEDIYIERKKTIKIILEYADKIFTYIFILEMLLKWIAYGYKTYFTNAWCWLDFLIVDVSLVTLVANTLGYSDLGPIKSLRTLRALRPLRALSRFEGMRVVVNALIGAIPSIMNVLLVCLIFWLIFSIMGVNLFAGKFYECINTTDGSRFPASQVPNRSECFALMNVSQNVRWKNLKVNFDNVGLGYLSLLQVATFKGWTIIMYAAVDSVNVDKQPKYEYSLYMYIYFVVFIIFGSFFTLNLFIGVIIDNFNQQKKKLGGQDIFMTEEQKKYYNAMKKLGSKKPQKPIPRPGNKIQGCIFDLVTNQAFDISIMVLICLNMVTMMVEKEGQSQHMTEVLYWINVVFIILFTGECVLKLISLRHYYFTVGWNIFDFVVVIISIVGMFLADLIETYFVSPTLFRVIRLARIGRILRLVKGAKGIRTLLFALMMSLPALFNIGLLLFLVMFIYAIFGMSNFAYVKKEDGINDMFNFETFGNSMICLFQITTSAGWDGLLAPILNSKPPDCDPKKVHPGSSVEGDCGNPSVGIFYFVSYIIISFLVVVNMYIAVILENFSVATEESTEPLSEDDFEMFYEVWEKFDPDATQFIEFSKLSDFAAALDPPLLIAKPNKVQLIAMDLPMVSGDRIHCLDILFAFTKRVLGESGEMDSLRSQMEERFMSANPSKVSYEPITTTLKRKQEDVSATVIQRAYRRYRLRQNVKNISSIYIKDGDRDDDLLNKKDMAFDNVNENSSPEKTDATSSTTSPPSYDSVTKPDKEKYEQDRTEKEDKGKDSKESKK

[2] = recombinant human Nav1.7 in HEK293

SMILES	SNL-induced mechanical hyperalgesia in rats [1]	IC50 (human Nav1.7; [2])	further results
C[C@H](Nc1cc(C(N)=O)nc(-c2ccc(Oc3ccc(OC(F)(F)F)cc3)cc2)n1)C(N)=O [compound 84, (S)-6-((1-amino-1-oxopropan-2-yl)amino)-2-(4-(4-(trifluoromethoxy)phenoxy)phenyl)pyrimidine-4-carboxamide]	reduced SNL-induced mechanical hyperalgesia	–	–
C[C@H](Oc1cc(C(N)=O)nc(-c2ccc(Oc3cc(Cl)ccc3F)cc2)n1)C(N)=O [Cpd No. 92]	–	270 nM	–
NC(=O)c1cc(N[C@H]2CCNC2=O)nc(-c2ccc(Oc3ccc(C(F)(F)F)cn3)cc2)n1 [compound 99, (S)-6-((2-oxopyrrolidin-3-yl)amino)-2-(4-((5-(trifluoromethyl)pyridin-2-yl)oxy)phenyl)pyrimidine-4-carboxamide]	reduced SNL-induced mechanical hyperalgesia	–	–
C[C@H](Nc1cc(C(N)=O)nc(-c2ccc(Oc3cc(C(F)(F)F)ccn3)cc2)n1)C(N)=O [compound 57]	–	3250 nM	–
C[C@H](Oc1cc(C(N)=O)nc(-c2ccc(Oc3ccc(Cl)cc3F)cc2)n1)C(N)=O [Cpd No. 93]	–	83 nM	–
C[C@H](Nc1cc(C(N)=O)nc(-c2ccc(Oc3ccc(F)cc3)c(CO)c2)n1)C(N)=O [compound 97, (S)-6-((1-amino-1-oxopropan-2-yl)amino)-2-(4-(4-fluorophenoxy)-3-(hydroxymethyl)phenyl)pyrimidine-4-carboxamide]	–	–	IC50 (human Nav1.7): 5720 nM
